Measured values as given in US10314823B2, “Substituted 1,2-dihydro-3H-pyrrolo[1,2-c]imidazol-3-one antibacterial compounds” (IDORSIA PHARMACEUTICALS LTD, priority 2015, dated 2019).
Converted amounts (≈) assume the structure as drawn.

Columns and labels:
Type in all cases: cell-based
wild-type E. coli A-1261 = experiment: MIC of prodrug with or without alkaline phosphatase or esterase
Method: Minimal Inhibitory Concentrations (MICs; mg/L) were determined in cation-adjusted Mueller-Hinton Broth by a microdilution method following the description given in “Methods for Dilution Antimicrobial Susceptibility Tests for Bacteria that Grow Aerobically”, Approved standard, 7th ed., Clinical and Laboratory Standards Institute (CLSI) Document M7-A7, Wayne, Pa., USA (2006).
The compound of Example 86 was tested against wild-type E. coli A-1261 in the absence of alkaline phosphatase or esterase, in the presence of an alkaline phosphatase and in the presence of an esterase. The corresponding antibacterial test results are given in Table 2 hereafter (MICs in mg/L).

E. coli ATCC25922 = experiment: Bacterial growth minimal inhibitory concentration (CLSI broth microdilution); details: Escherichia coli, ATCC25922; quinolone-sensitive strain; cation-adjusted Mueller-Hinton Broth
Procedure, shortened: (§1)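 Growth inhibition is assessed by broth microdilution in cation-adjusted Mueller-Hinton broth, with MIC values given in mg/L.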

P. aeruginosa ATCC27853 = experiment: as above; details: Pseudomonas aeruginosa, ATCC27853; quinolone-sensitive strain; cation-adjusted Mueller-Hinton Broth
Procedure, shortened: as §1

K. pneumoniae A-651 = experiment: as above; details: Klebsiella pneumoniae, A651; multiply resistant strain (in particular quinolone-resistant); cation-adjusted Mueller-Hinton Broth
Procedure, shortened: as §1

| MIC (E. coli ATCC25922) | MIC (P. aeruginosa ATCC27853) | MIC (K. pneumoniae A-651) | Compound | MIC for E. coli A-1261 In the presence of an alkaline phosphatase (2 i.U./mL) (wild-type E. coli A-1261; alkaline phosphatase 2 i.U./mL) | MIC for E. coli A-1261 In the presence of an esterase (10 i.U./mL) (wild-type E. coli A-1261; esterase 10 i.U./mL) | MIC for E. coli A-1261 In the absence of alkaline phosphatase or esterase (wild-type E. coli A-1261; no alkaline phosphatase or esterase) |
| --- | --- | --- | --- | --- | --- | --- |
| – | – | – | C[C@@](CCN1Cc2cc(C#CC#CC3CN(CCO)C3)cn2C1=O)(C(=O)NOC(=O)CCc1ccccc1OP(=O)(O)O)S(C)(=O)=O [Example 86, (2R)-2-(3-((4-(6-((1-(2-hydroxyethyl)azetidin-3-yl)buta-1,3-diyn-1-yl)-3-oxo-1H-pyrrolo[1,2-c]imidazol-2(3H)-yl)-2-methyl-2-(methylsulfonyl)butanamido)oxy)-3-oxopropyl)phenyl dihydrogen phosphate] | 1 µg/mL | 16 µg/mL | 16 µg/mL |
| 2 µg/mL (≈ 4.34 µM) | 4 µg/mL (≈ 8.69 µM) | 2 µg/mL (≈ 4.34 µM) | CN(C)C[C@@H]1C[C@H]1C#CC#Cc1cc2n(c1)C(=O)N(CC[C@](C)(C(=O)NO)S(C)(=O)=O)C2 [Example 44, (2R)-4-(6-(((1R,2R)-2-((dimethylamino)methyl)cyclopropyl)buta-1,3-diyn-1-yl)-3-oxo-1H-pyrrolo[1,2-c]imidazol-2(3H)-yl)-N-hydroxy-2-methyl-2-(methylsulfonyl)butanamide] | – | – | – |
| 4 µg/mL | 4 µg/mL | 4 µg/mL | C[C@@](CCN1Cc2cc(C#CC#C[C@@H]3C[C@H](F)CN3)cn2C1=O)(C(=O)NO)S(C)(=O)=O.Cl [Example 53, (2R)-4-(6-(((2S,4S)-4-fluoropyrrolidin-2-yl)buta-1,3-diyn-1-yl)-3-oxo-1H-pyrrolo[1,2-c]imidazol-2(3H)-yl)-N-hydroxy-2-methyl-2-(methylsulfonyl)butanamide hydrochloride] | – | – | – |
| 0.5 µg/mL (≈ 0.999 µM) | 0.5 µg/mL (≈ 0.999 µM) | 2 µg/mL (≈ 4 µM) | C[C@@](CCN1Cc2cc(C#Cc3ccc(CN4CC(O)C4)cc3)cn2C1=O)(C(=O)NO)S(C)(=O)=O [Example 43, (2R)—N-hydroxy-4-(6-((4-((3-hydroxyazetidin-1-yl)methyl)phenyl)ethynyl)-3-oxo-1H-pyrrolo[1,2-c]imidazol-2(3H)-yl)-2-methyl-2-(methylsulfonyl)butanamide] | – | – | – |
| 0.25 µg/mL (≈ 0.508 µM) | 2 µg/mL (≈ 4.06 µM) | 1 µg/mL (≈ 2.03 µM) | C[C@@](CCN1Cc2cc(C#CC#CC3(F)CN(C4COC4)C3)cn2C1=O)(C(=O)NO)S(C)(=O)=O [Example 19, (2R)-4-(6-((3-fluoro-1-(oxetan-3-yl)azetidin-3-yl)buta-1,3-diyn-1-yl)-3-oxo-1H-pyrrolo[1,2-c]imidazol-2(3H)-yl)-N-hydroxy-2-methyl-2-(methylsulfonyl)butanamide] | – | – | – |
| 2 µg/mL (≈ 4.58 µM) | 2 µg/mL (≈ 4.58 µM) | 4 µg/mL (≈ 9.16 µM) | C[C@@](CCN1Cc2cc(C#CC#CC3(F)CNC3)cn2C1=O)(C(=O)NO)S(C)(=O)=O [Example 18, (2R)-4-(6-((3-fluoroazetidin-3-yl)buta-1,3-diyn-1-yl)-3-oxo-1H-pyrrolo[1,2-c]imidazol-2(3H)-yl)-N-hydroxy-2-methyl-2-(methylsulfonyl)butanamide] | – | – | – |
| 1 µg/mL (≈ 2.05 µM) | 2 µg/mL (≈ 4.09 µM) | 1 µg/mL (≈ 2.05 µM) | C[C@@](CCN1Cc2cc(C#CC#CC3CCN(C4COC4)C3)cn2C1=O)(C(=O)NO)S(C)(=O)=O (stereo partly drawn) [Example 89, (2R)—N-hydroxy-2-methyl-2-(methylsulfonyl)-4-(6-((1-(oxetan-3-yl)pyrrolidin-3-yl)buta-1,3-diyn-1-yl)-3-oxo-1H-pyrrolo[1,2-c]imidazol-2(3H)-yl)butanamide] | – | – | – |
| 2 µg/mL (≈ 3.95 µM) | 1 µg/mL (≈ 1.97 µM) | 2 µg/mL (≈ 3.95 µM) | C[C@@](CCN1Cc2cc(C#CC#CC3CN(CC(CO)CO)C3)cn2C1=O)(C(=O)NO)S(C)(=O)=O [Example 67, (2R)—N-hydroxy-4-(6-((1-(3-hydroxy-2-(hydroxymethyl)propyl)azetidin-3-yl)buta-1,3-diyn-1-yl)-3-oxo-1H-pyrrolo[1,2-c]imidazol-2(3H)-yl)-2-methyl-2-(methylsulfonyl)butanamide] | – | – | – |
| 0.5 µg/mL (≈ 1.04 µM) | 2 µg/mL (≈ 4.16 µM) | 1 µg/mL (≈ 2.08 µM) | C[C@@](CCN1Cc2cc(C#CC#CC3(F)CN(CCO)C3)cn2C1=O)(C(=O)NO)S(C)(=O)=O [Example 66, (2R)-4-(6-((3-fluoro-1-(2-hydroxyethyl)azetidin-3-yl)buta-1,3-diyn-1-yl)-3-oxo-1H-pyrrolo[1,2-c]imidazol-2(3H)-yl)-N-hydroxy-2-methyl-2-(methylsulfonyl)butanamide] | – | – | – |
